The text below walks through data of ChEMBL document CHEMBL1128102, “1,5-Benzodiazepines as CCK-B antagonists. Effect of halogen substitution at the benzo-fused ring on potency and selectivity” (Bioorg Med Chem Lett, 1995).

As usually defined, the Ki is the equilibrium dissociation constant of an inhibitor or competing ligand from its target.

The target of assay [1] is T1, Cholecystokinin receptor type A (Rattus norvegicus, UniProt P30551).
T1 sequence (P30551 whole entry): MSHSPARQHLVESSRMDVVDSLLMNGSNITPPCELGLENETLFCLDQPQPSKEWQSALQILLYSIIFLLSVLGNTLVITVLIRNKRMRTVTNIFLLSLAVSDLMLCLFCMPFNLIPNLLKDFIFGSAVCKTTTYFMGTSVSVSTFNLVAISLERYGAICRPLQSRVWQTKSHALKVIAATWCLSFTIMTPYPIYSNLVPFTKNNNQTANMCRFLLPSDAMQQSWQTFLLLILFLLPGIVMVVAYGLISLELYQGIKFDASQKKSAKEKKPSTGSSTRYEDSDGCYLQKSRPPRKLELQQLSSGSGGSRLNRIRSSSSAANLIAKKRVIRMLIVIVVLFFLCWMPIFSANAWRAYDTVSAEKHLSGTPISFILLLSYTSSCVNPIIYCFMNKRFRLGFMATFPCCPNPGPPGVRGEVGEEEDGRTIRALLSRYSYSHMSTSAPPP
The assay is described as follows: Binding affinity was measured by its ability to displace [3H]CCK-8S from CCK-A receptor in rat pancreas.

Assay [2] deals with Cholecystokinin receptor (Homo sapiens) (UniProt P32239+P32238). The assay is described as follows: Selectivity was determined as the ratio for binding affinities of CCK-A receptor to CCK-B receptor. The class given is protein assay.
Chain of Cholecystokinin receptor (Homo sapiens) (P32238 whole entry, looked up): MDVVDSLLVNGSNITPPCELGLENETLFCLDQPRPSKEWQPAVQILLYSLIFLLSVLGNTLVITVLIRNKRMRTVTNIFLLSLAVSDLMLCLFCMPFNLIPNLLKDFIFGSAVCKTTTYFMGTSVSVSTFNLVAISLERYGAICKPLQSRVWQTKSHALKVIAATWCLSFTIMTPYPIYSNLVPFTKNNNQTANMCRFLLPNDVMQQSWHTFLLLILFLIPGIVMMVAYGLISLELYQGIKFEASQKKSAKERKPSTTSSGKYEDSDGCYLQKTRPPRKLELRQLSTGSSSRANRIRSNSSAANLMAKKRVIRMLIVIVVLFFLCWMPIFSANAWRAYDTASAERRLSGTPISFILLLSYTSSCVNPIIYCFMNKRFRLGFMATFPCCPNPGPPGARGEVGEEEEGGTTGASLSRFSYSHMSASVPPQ
Chain of Cholecystokinin receptor (Homo sapiens) (P32239 whole entry, looked up): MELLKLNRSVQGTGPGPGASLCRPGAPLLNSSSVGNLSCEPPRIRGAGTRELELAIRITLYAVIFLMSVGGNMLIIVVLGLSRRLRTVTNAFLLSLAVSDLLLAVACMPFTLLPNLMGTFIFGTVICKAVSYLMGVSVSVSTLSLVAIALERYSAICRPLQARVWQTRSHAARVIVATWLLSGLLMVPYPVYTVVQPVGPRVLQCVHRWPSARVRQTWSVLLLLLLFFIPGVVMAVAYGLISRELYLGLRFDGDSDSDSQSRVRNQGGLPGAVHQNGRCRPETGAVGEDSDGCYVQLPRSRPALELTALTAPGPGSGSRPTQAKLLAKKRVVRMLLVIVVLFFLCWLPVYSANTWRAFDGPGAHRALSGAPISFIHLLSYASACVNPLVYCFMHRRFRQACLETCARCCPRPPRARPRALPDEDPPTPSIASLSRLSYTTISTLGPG

`CC(C)CCN1C(=O)C(NC(=O)Nc2ccccc2)C(=O)N(c2ccccc2)c2ccc(Cl)cc21` (stereo not given) had an inhibition constant Ki in assay [1] of 41.7 nM. Besides, the Ratio in assay [2] came out at 23.
Taken in the same sequence, the figures for `CC(C)CCN1C(=O)C(NC(=O)Nc2ccccc2)C(=O)N(c2ccccc2)c2ccc(F)cc21` (stereo not given) were 8.91 nM and over 110.
Taken in the same sequence, the figures for `CC(C)CCN1C(=O)C(NC(=O)Nc2ccccc2)C(=O)N(c2ccccc2)c2cc(F)ccc21` (stereo not given) were 4.57 nM and 49.
In the same order, the values of `CC(C)CCN1C(=O)C(NC(=O)Nc2ccccc2)C(=O)N(c2ccccc2)c2cc(Cl)c(Cl)cc21` (stereo not given) are 9.77 nM and 162.
Regarding `CC(C)CCN1C(=O)C(NC(=O)Nc2ccccc2)C(=O)N(c2ccccc2)c2cc(Cl)ccc21` (stereo not given), the affinity in assay [1] corresponds to a Ki of 4.9 nM. Moreover, the Ratio in assay [2] is 195.
